Experimental data from patent US20150045551A1, “FUSED AZOLE DERIVATIVE” (TAISHO PHARMACEUTICAL CO., LTD, priority 2012, published 2015).

Key:
Human V1b receptor [1] = biological target: T1, Human V1b receptor (Homo sapiens, UniProt P47901); assay: Measurement of V1b receptor antagonistic activity (AVP-induced Fluo-4 fluorescence, FDSS); type: cell-based; set-up: expressed in transfected cells; conditions: CHO cells stably expressing human V1b receptor; AVP 2.5 nmol/L; 30 minutes preincubation with test compound
T1 sequence (P47901 1-424): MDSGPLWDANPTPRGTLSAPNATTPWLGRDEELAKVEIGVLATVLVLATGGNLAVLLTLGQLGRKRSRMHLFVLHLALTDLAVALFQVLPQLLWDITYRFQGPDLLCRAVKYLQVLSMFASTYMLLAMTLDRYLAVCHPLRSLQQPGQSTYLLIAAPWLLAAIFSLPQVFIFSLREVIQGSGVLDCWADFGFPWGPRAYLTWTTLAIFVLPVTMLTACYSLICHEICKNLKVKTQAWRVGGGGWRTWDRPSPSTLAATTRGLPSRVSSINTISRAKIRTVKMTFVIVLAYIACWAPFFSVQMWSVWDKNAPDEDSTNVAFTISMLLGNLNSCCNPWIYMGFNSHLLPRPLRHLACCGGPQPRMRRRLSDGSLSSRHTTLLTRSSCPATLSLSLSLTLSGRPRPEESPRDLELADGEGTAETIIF
Protocol: CHO cells so modified as to express human V1b receptor in a stable manner were cultured in Ham's F-12 medium (containing 10% FBS and 0.5 mg/mL Geneticin). On the day before the test, seeding was conducted at a density of 20,000 cells/well in a 96-well poly-D-lysine coated black plate. On the day of the test, the culture medium was removed, and a loading solution (1×HBSS, 10 mmol/L HEPES, 0.1% bovine serum albumin, 1.25 mmol/L Probenecid, 0.02% Pluronic F-127, 1.5 μmol/L Fluo-4-AM, pH 7.4) was added to each well, followed by incubation in a CO2 incubator for an hour. After the incubation, the loading solution was removed. A test solution (1×HBSS, 10 mmol/L HEPES, 0.1% bovine serum albumin, 1.25 mmol/L Probenecid, pH 7.4) containing any one of test compounds was added to wells, followed by incubation in a CO2 incubator for 30 minutes. The test compound was serially diluted with DMSO so that it would have final concentrations of 0.1 nmol/L to 1 μmol/L at the time of assaying. After the incubation, fluorescence intensity levels were measured and AVP added by means of FDSS (Hamamatsu Photonics K.K.); AVP was added to give a final concentration of 2.5 nmol/L at the time of assaying. […] The fluorescence level in a well to which neither test compound nor AVP was added was defined as 0%, and the fluorescence level in a well to which only AVP was added and no test compound was added was defined as 100%. A dose-response curve was plotted from fluorescence levels after the addition of AVP in the presence of a test compound at various concentrations, and the 50% inhibitory concentration (IC50 value) of the compound was calculated.

Human V1b receptor [2] = biological target: T1, Human V1b receptor; assay: Binding test for V1b receptor ([3H]AVP displacement, crude membrane preparation); set-up: expressed in transfected cells; host or cells: 293FT cells (transient expression); conditions: [3H]AVP 0.4 to 1 nmol/L; membranes of 293FT cells transiently expressing human V1b receptor; room temperature, 60 minutes
Protocol: Human V1b receptor was transiently expressed in 293FT cells, which were then recovered and homogenated in a 15 mmol/L tris-hydrochloric acid buffer (pH 7.4 and containing 2 mmol/L magnesium chloride, 0.3 mmol/L ethylenediaminetetracetic acid, and 1 mmol/L glycol ether diaminetetraacetic acid). The resulting homogenate was centrifuged at 50,000×g at 4 ° C. for 20 minutes. The precipitate was resuspended in a 75 mmol/L tris-hydrochloric acid buffer (pH 7.4 and containing 12.5 mmol/L magnesium chloride, 0.3 mmol/L ethylenediaminetetracetic acid, 1 mmol/L glycol ether diaminetetraacetic acid, and 250 mmol/L sucrose) to give a crude membrane preparation, which was stored at −80° C. until the binding test was initiated. In the binding test, the crude membrane preparation was diluted with a 50 mmol/L tris-hydrochloric acid buffer (pH 7.4 and containing 10 mmol/L magnesium chloride and 0.1% bovine serum albumin) and mixed with each test compound and [^3H]AVP (final concentration: 0.4 to 1 nmol/L), followed by incubation at room temperature for 60 minutes. The test compound was serially diluted with DMSO so that it would have final concentrations of 0.01 nmol/L to […] at the time of mixing. After the incubation, the mixture was suction filtered through a GF/C filter that was preliminarily impregnated with 0.3% polyethyleneimine. The GF/C filter was dried and after adding a scintillator, the residual radioactivity on the filter was measured using TopCount (PerkinElmer Inc.). The radioactivity in the presence of unlabeled AVP at 10 μmol/L was defined as 0%, and the radioactivity in the absence of unlabeled AVP was defined as 100%. A dose-response curve was plotted from radioactivities in the presence of a test compound at various concentrations, and the 50% inhibitory concentration (IC50 value) of the test compound was calculated.

IC50 (Human V1b receptor [1])	IC50 (Human V1b receptor [2])	SMILES
101 nM	2.6 nM	COc1cc(-c2nc3cc(-c4cc(Cl)cc(CN(C)C)c4)ccc3n2CC(=O)NC(C)C)ccc1F [Example A-9, 2-[5-{3-chloro-5-[(dimethylamino)methyl]phenyl}-2-(4-fluoro-3-methoxyphenyl)-1H-benzimidazol-1-yl]-N-isopropyl acetamide]
21.4 nM	5.3 nM	CC(C)NC(=O)Cn1c(-c2cccc(Cl)c2)cc2cc(OCCCN3CC4(COC4)C3)ccc21 [Example B-9, 2-{2-(3-chlorophenyl)-5-[3-(2-oxa-6-azaspiro[3.3]hept-6-yl)propoxy]-1H-indol-1-yl}-N-isopropyl acetamide]
88 nM	–	CC(C)NC(=O)Cn1c(-c2ccc(F)c(Cl)c2)nc2cc(OCCCN3CCCCC3)ccc21 [Example A-11, 2-{2-(3-chloro-4-fluorophenyl)-5-[3-(piperidin-1-yl)propoxy]-1H-benzimidazol-1-yl}-N-isopropyl acetamide]
97 nM	8.7 nM	CC(C)NC(=O)Cn1c(-c2cccc(Cl)c2)cc2cc(OCCCN3CCCCC3)ccc21 [Example B-1, 2-{2-(3-chlorophenyl)-5-[3-(piperidin-1-yl)propoxy]-1H-indol-1-yl}-N-isopropyl acetamide]
53.5 nM	12.5 nM	CC(C)NC(=O)Cn1c(-c2ccc(F)c(Cl)c2)nc2cc(OCCCN3CCOCC3)ccc21 [Example A-14, 2-{2-(3-chloro-4-fluorophenyl)-5-[3-(morpholin-4-yl)propoxy]-1H-benzimidazol-1-yl}-N-isopropyl acetamide]
212 nM	14.4 nM	CC(C)NC(=O)Cn1c(-c2cccc(Cl)c2)nc2cc(OCCCN3CCCCC3)ccc21 [Example A-1, 2-{2-(3-chlorophenyl)-5-[3-(piperidin-1-yl)propoxy]-1H-benzimidazol-1-yl}-N-isopropyl acetamide]
122 nM	43.3 nM	COc1cc(-c2nc3cc(OCCCN4CCCCC4)ccc3n2CC(=O)NC(C)C)ccc1F [Example A-5, 2-{2-(4-fluoro-3-methoxyphenyl)-5-[3-(piperidin-1-yl)propoxy]-1H-benzimidazol-1-yl}-N-isopropyl acetamide]
50.8 nM	21.4 nM	CC(C)NC(=O)Cn1c(-c2cccc(Cl)c2)cc2cc(OCCCN3CCCCC3)cnc21 [Example B-21, 2-{2-(3-chlorophenyl)-5-[3-(piperidin-1-yl)propoxy]-1H-pyrrolo[2,3-b]pyridin-1-yl}-N-isopropyl acetamide]
62.4 nM	32.9 nM	CC(C)NC(=O)Cn1c(-c2ccc(F)c(Cl)c2)nc2cc(OCCCN3CCCCCC3)ccc21 [Example A-13, 2-{5-[3-(azepan-1-yl)propoxy]-2-(3-chloro-4-fluorophenyl)-1H-benzimidazol-1-yl}-N-isopropyl acetamide]
21.9 nM	4.9 nM	CC(C)NC(=O)Cn1c(-c2ccc(F)c(Cl)c2)cc2cc(OCCCN3CCCCC3)ccc21 [Example B-4, 2-{2-(3-chloro-4-fluorophenyl)-5-[3-(piperidin-1-yl)propoxy]-1H-indol-1-yl}-N-isopropyl acetamide]
8 nM	8.9 nM	CC(C)NC(=O)Cn1c(-c2ccc(F)c(Cl)c2)cc2cc(OCCCN3CCOCC3)ccc21 [Example B-5, 2-{2-(3-chloro-4-fluorophenyl)-5-[3-(morpholin-4-yl)propoxy]-1H-indol-1-yl}-N-isopropyl acetamide]
6 nM	0.86 nM	CC(C)NC(=O)Cn1c(-c2ccc(F)c(Cl)c2)cc2cc(OC3CCN(C4CCCC4)CC3)ccc21 [Example B-17, 2-{2-(3-chloro-4-fluorophenyl)-5-[(1-cyclopentylpiperidin-4-yl)oxy]-1H-indol-1-yl}-N-isopropyl acetamide]
25.9 nM	29.3 nM	COc1cc(-c2nc3cc(OCCCN4CCOCC4)ccc3n2CC(=O)NC(C)C)ccc1F [Example A-6, 2-{2-(4-fluoro-3-methoxyphenyl)-5-[3-(morpholin-4-yl)propoxy]-1H-benzimidazol-1-yl}-N-isopropyl acetamide]
–	52.1 nM	COc1cc(-c2cc3cc(OCCCN4CCCCC4)ccc3n2CC(=O)NC(C)C)ccc1F [Example B-11, 2-{2-(4-fluoro-3-methoxyphenyl)-5-[3-(piperidin-1-yl)propoxy]-1H-indol-1-yl}-N-isopropyl acetamide]
–	73.4 nM	CC(C)NC(=O)Cn1c(-c2cccc(Cl)c2)cc2cc(OCCCN3CCCC(O)C3)ccc21 (centres unmarked) [Example B-7, 2-{2-(3-chlorophenyl)-5-[3-(3-hydroxypiperidin-1-yl)propoxy]-1H-indol-1-yl}-N-isopropyl acetamide]
–	8.3 nM	CC(C)NC(=O)Cn1c(-c2cccc(Cl)c2)nc2cc(OCCCN3CC4(COC4)C3)ccc21 [Example A-3, 2-{2-(3-chlorophenyl)-5-[3-(2-oxa-6-azaspiro[3.3]hept-6-yl)propoxy]-1H-benzimidazol-1-yl}-N-isopropyl acetamide]
–	375 nM	CC(C)NC(=O)Cn1c(=O)c2cc(OCCCN3CCCCC3)ccc2n1-c1cccc(Cl)c1 [Example D-1, 2-{1-(3-chlorophenyl)-3-oxo-5-[3-(piperidin-1-yl)propoxy]-1,3-dihydro-2H-indazol-2-yl}-N-isopropyl acetamide]
–	522 nM	CC(C)NC(=O)Cn1c(-c2cccc(Cl)c2)cc2c1CCN(CCCCN1CCCCC1)C2 [Example E-1, 2-{2-(3-chlorophenyl)-5-[4-(piperidin-1-yl)butyl]-4,5,6,7-tetrahydro-1H-pyrrolo[3,2-c]pyridin-1-yl}-N-isopropyl acetamide]
–	14.1 nM	CC(C)NC(=O)Cn1c(-c2cccc(Cl)c2)nc2cc(OCCCN3CCOCC3)ccc21 [Example A-2, 2-{2-(3-chlorophenyl)-5-[3-(morpholin-4-yl)propoxy]-1H-benzimidazol-1-yl}-N-isopropyl acetamide]
–	6.4 nM	CC(C)NC(=O)Cn1c(-c2cccc(Cl)c2)cc2cc(OCCCN3CCOCC3)ccc21 [Example B-2, 2-{2-(3-chlorophenyl)-5-[3-(morpholin-4-yl)propoxy]-1H-indol-1-yl}-N-isopropyl acetamide]
–	52.3 nM	CC(C)NC(=O)Cn1c(-c2cccc(Cl)c2)cc2cc(OCCCN3CCC(O)C3)ccc21 (centres unmarked) [Example B-8, 2-{2-(3-chlorophenyl)-5-[3-(3-hydroxypyrrolidin-1-yl)propoxy]-1H-indol-1-yl}-N-isopropyl acetamide]

SMILES	IC50 (Human V1b receptor [1])	IC50 (Human V1b receptor [2])
CC(C)NC(=O)Cn1c(-c2ccc(F)c(Cl)c2)nc2cc(OCCCN3[C@@H]4CC[C@H]3COC4)ccc21 [Example A-16, 2-[2-(3-chloro-4-fluorophenyl)-5-{3-[(1R,5S)-3-oxa-8-azabicyclo[3.2.1]oct-8-yl]propoxy}-1H-benzimidazol-1-yl]-N-isopropyl acetamide]	–	1.7 nM
CC(C)NC(=O)Cc1c(-c2ccc(F)c(Cl)c2)nc2cc(OCCCN3CCOCC3)ccn12 [Example C-2, 2-{2-(3-chloro-4-fluorophenyl)-7-[3-(morpholin-4-yl)propoxy]imidazo[1,2-a]pyridin-3-yl}-N-isopropyl acetamide]	–	9.9 nM
